Laboratory results: PubChem BioAssay AID330 (DTP/NCI, 2004)
Values joined by “and” are separate entries in the source; they are usually repeats but may differ in a detail not shown here. Equal entries are not always repeated. Inconclusive results and toxic doses are left out. How the source made its calls: active means survival T/C of 150% or more; inactive means T/C below 125% in these data.

Test system: P388 leukemia ip, CD2F1 mice, survival T/C
Assay: NCI In Vivo Anticancer Drug Screen. Data for tumor model P388 Leukemia (intraperitoneal) in CD2F1 (CDF1) mice
Conditions: endpoint: median survival time, higher = longer survival
Method in brief: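 Mice carrying the transplanted tumor received test compound or vehicle. Survival was recorded in each group, and the value is the treated-group measurement divided by that of the vehicle-treated control group.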

[1] = dose: 50.0 mg/kg/injection, schedule: Q01DX005 (ip), vehicle: saline with Tween-80
[2] = dose: 100.0 mg/kg/injection, schedule: Q01DX005 (ip), vehicle: saline with Tween-80
[3] = dose: 25.0 mg/kg/injection, schedule: Q01DX009 (ip), vehicle: saline
[4] = dose: 50.0 mg/kg/injection, schedule: Q01DX009 (ip), vehicle: Klucel (hydroxypropylcellulose) (HPC)
[5] = dose: 50.0 mg/kg/injection, schedule: Q01DX009 (ip), vehicle: saline
[6] = dose: 100.0 mg/kg/injection, schedule: Q01DX009 (ip), vehicle: Klucel (hydroxypropylcellulose) (HPC)

Measured: T/C

Oc1c(CN2CCCC2)cc(Nc2cc(/C=C/c3ccc(Cl)cc3)nc(/C=C\c3ccc(Cl)cc3)n2)cc1CN1CCCC1
inactive: dose: 0.62 mg/kg/injection, schedule: Q01DX009 (ip), vehicle: saline with Tween-80 103 % of control | dose: 1.25 mg/kg/injection, schedule: Q01DX009 (ip), vehicle: saline with Tween-80 112 % of control | dose: 2.5 mg/kg/injection, schedule: Q01DX009 (ip), vehicle: saline with Tween-80 105 % of control | dose: 5.0 mg/kg/injection, schedule: Q01DX009 (ip), vehicle: saline with Tween-80 106 % of control | dose: 10.0 mg/kg/injection, schedule: Q01DX009 (ip), vehicle: saline with Tween-80 92 % of control

O=C(ON1C(=O)CCC1=O)C1CCC(CN2C(=O)C=CC2=O)CC1 (configuration not stated)
inactive: dose: 100.0 mg/kg/injection, schedule: Q04DX002 (ip), vehicle: saline with Tween-80 120 % of control

COc1ccc(/C(CC2(O)C(=O)Nc3c(C)cc(Cl)cc32)=N\NC(=O)C(=O)NN)cc1 (configuration not stated)
inactive: [1] 106 % of control | [2] 98 % of control | dose: 200.0 mg/kg/injection, schedule: Q01DX005 (ip), vehicle: saline with Tween-80 96 % of control

O=C(Nc1ccccc1)Oc1ccc[nH]c1=O
inactive: dose: 25.0 mg/kg/injection, schedule: Q01DX009 (ip), vehicle: Klucel (hydroxypropylcellulose) (HPC) 117 % of control and 122 % of control | [3] 113 % of control and 120 % of control | [4] 117 % of control and 123 % of control | [5] 118 % of control | [6] 87 % of control

Oc1cc2c(cc1C(c1ccc(F)cc1)N1CCOCC1)OCO2 (configuration not stated)
inactive: dose: 60.0 mg/kg/injection, schedule: Q01DX005 (ip), vehicle: saline with Tween-80 117 % of control | dose: 120.0 mg/kg/injection, schedule: Q01DX005 (ip), vehicle: saline with Tween-80 102 % of control | dose: 240.0 mg/kg/injection, schedule: Q01DX005 (ip), vehicle: saline with Tween-80 108 % of control

CC(=O)OCC1OC(n2nnc3c(=O)[nH]cnc32)C(OC(C)=O)C(OC(C)=O)C1OC(C)=O (configuration not stated)
inactive: dose: 100.0 mg/kg/injection, schedule: Q01DX001 (ip), vehicle: saline with Tween-80 96 % of control | dose: 200.0 mg/kg/injection, schedule: Q01DX001 (ip), vehicle: saline with Tween-80 102 % of control | dose: 400.0 mg/kg/injection, schedule: Q01DX001 (ip), vehicle: saline with Tween-80 94 % of control

CC(C)(C)N=S=Nc1c(F)c(F)c(F)c(F)c1F
inactive: [1] 110 % of control | [2] 106 % of control

CCCC(N)P(=O)(O)O (configuration not stated)
inactive: [5] 99 % of control | dose: 100.0 mg/kg/injection, schedule: Q01DX009 (ip), vehicle: saline 93 % of control | dose: 200.0 mg/kg/injection, schedule: Q01DX009 (ip), vehicle: saline 96 % of control | dose: 400.0 mg/kg/injection, schedule: Q01DX009 (ip), vehicle: saline 93 % of control

O=P(c1ccccc1)(c1ccccc1)c1ccccc1.O=P(c1ccccc1)(c1ccccc1)c1ccccc1.O=P(c1ccccc1)(c1ccccc1)c1ccccc1.O=P(c1ccccc1)(c1ccccc1)c1ccccc1.[Cr+3].[O-][Cl+3]([O-])([O-])O
inactive: dose: 100.0 mg/kg/injection, schedule: Q04DX003 (ip), vehicle: saline + Tween-80 + alcohol 101 % of control | dose: 200.0 mg/kg/injection, schedule: Q04DX003 (ip), vehicle: saline + Tween-80 + alcohol 100 % of control

CCCCN1C(=O)C(=O)N(Cc2ccco2)C1=O
inactive: [4] 98 % of control | [6] 104 % of control | dose: 200.0 mg/kg/injection, schedule: Q01DX009 (ip), vehicle: Klucel (hydroxypropylcellulose) (HPC) 106 % of control

Nc1ccc(C(=O)CCCN2CCCCC2)cc1
inactive: dose: 12.5 mg/kg/injection, schedule: Q01DX009 (ip), vehicle: saline 104 % of control | dose: 12.5 mg/kg/injection, schedule: Q04DX003 (ip), vehicle: saline 91 % of control | [3] 95 % of control | dose: 25.0 mg/kg/injection, schedule: Q04DX003 (ip), vehicle: saline 95 % of control | [5] 90 % of control | dose: 50.0 mg/kg/injection, schedule: Q04DX003 (ip), vehicle: saline 91 % of control
